“Also recorded” adds a separate entry of the source.
Key:
[1] = Tissue diffusion coefficient rejuvenation of ex vivo donor lungs, tested in the recipient patient after transplantation; details: ex vivo organ flushed once with cooled preservation solution containing 0.01 to 1.0 mM; testing in recipient patient
Method: The following is an illustration of a methodology that can be used to rejuvenate ex vivo and prior to transplantation to a recipient patient the lungs removed from a donor cadaver aged 21 years or more. […] Individuals' deformability and diffusion characteristics can be characterized by using the standard methodology of determination of the lung diffusing capacity for carbon monoxide (e.g., Chang et al., Chest (1992) 102:139-42). The diffusing capacity is measured in the supine patient using a single breath of carbon monoxide (0.3%) held for ten seconds using a CPI 5000 IV (Gould Instruments, Houston, Tex.), corrected for alveolar volume. A young subject (20 years old) will have approximately a 40% higher diffusion coefficient for carbon monoxide compared to older subjects (60 yrs). The ex vivo organ is flushed once with a cooled preservation solution containing 3-(2-phenyl-2-oxoethyl)-4,5-dimethylthiazolium chloride at a concentration of 0.01 to 1.0 mM.

[2] = Hair deformability: stress vs strain of bending individual hairs before and after treatment; details: FIG. 1
From the text: Methodology for Determination of Stress vs Strain Relationship (Stiffness) The distensibility (i.e, elasticity, rigidity, shear, tensile strength, compression, etc.) of hair, nails, tendons, etc. may be determined using widely available commercial devices, such as manufactured by Instron. Alternatively, other test methods known to a practitioner of the art may be employed. The test assay for determining whether hair has been “rejuvenated” for the present invention is the following. Individual scalp hairs were cemented into the ends of glass capillary tubes such that several centimeters of the shaft protruded from the end. This hair was then trimmed to extend 18 mm from the end of the tube. The unit was then inserted into a micropipette positioner for study. Evaluation consisted of bending the hair by applying a specified force and displacement. Thus, this determination of stress vs strain of bending assessed elasticity, compressibility, and shear of each hair shaft. Each hair served as its own control, with baseline and post-treatment properties assessed and directly compared. A 1 mm thick plate with a 0.5 mm diameter hole drilled through was attached to the surface of an isometric strain gauge. To perform each measurement, the capillary tube was placed over the fenestrated plate and the hair end inserted into the hole in the plate without touching the strain gauge. The hair was then straightened, if necessary, such that its axis formed a 10 degree angle with respect to vertical. Once positioned, the hair was then lowered onto the surface of the strain gauge. The force required to bend each hair a specified distance was determined over a wide range of displacements. From the stress vs strain relationships thus derived, the work to bend each hair under different treatment regimens can be directly compared. For purposes of the present invention, the term “rejuvenated” hair means an improvement of at least 20% in the measured value of the treated hair, toward the values seen in young, undamaged hair (i.e. healthy). […] The stress versus strain relationship was determined as a baseline. […]

[3] = Tendon rejuvenation: elasticity in a materials testing device before and after ex vivo exposure; design: species or system hen; details: FIG. 2
Method: The distensibility (i.e, elasticity, rigidity, shear, tensile strength, compression, etc.) of hair, nails, tendons, etc. may be determined using widely available commercial devices, such as manufactured by Instron. Alternatively, other test methods known to a practitioner of the art may be employed. The elasticity of the Achilles tendon of a one year old hen was determined in a materials testing device before and after ex vivo exposure to 3-(2-phenyl-2-oxoethyl)-4,5-dimethylthiazolium chloride (1 mM) in a bath for 15 minutes.

In the case of `Cc1sc[n+](CC(=O)c2ccccc2)c1C.[Cl-]` [3-(2-phenyl-2-oxoethyl)-4,5-dimethylthiazolium chloride], the “deformability of transplanted lungs” value [1] is reported as “improved”, the “diffusional capacity of transplanted lungs” value [1] is reported as “improved” and the distensibility of hair ([2]; 1 mM, 15 minutes, after treatment vs baseline) is reported as “increased distensibility”. For the same compound, the stiffness of hair ([2]; after treatment) was “decreases the stiffness”, the “reduction of resulting strain versus before treatment” value ([2]; hair immersed in 1 mM solution for 15 minutes, stress greater than 0.08) was “about 50%” and the distensibility of tendon ([3]; 1 mM bath for 15 minutes ex vivo, post-treatment) was “improved; also recorded: significantly increased”. For the same compound, the “strain of treated tendon as percent of the strain of the untreated tendon” value ([3]; 1 mM bath for 15 minutes ex vivo, stress greater than 0.04) was “about 50%” and the “tensile strength of tendon” value ([3]; after treatment) was “improved”.
